In brackets after ≈: the same amount, converted by molar mass. Residues, ends and D or L forms follow the SMILES beside them.
Experiments:
[1] = tested on: Human Umbilical Vein Endothelial Cell (HUVEC); type: cell-based; details: for Cell Survival (%) at a polypeptide concentration of 120 μM: 6 h; for biological activity compared with P2: inhibition of HUVEC and HepG2
Protocol: 20 cm umbilical cord adjacent to fetus was taken, cleaned by washing, ligated at both ends, placed into 150 ml preservation solutions for umbilical cord, and stored in a 4° C. refrigerator for digestion for 6 hours. The umbilical cord was inspected to remove the damaged portion. The umbilical vein was thoroughly cleaned by washing and then 10 ml collagenase solution was injected. Then the umbilical vein was transferred to a 37° C. incubator for digestion for 15 minutes. The umbilical cord was removed and the digested solution was recovered. The digested solution was washed by PBS and centrifuged. After centrifugation, the cells were culture by re-suspension.
(§1) Inhibition of cell growth was detected by a MTT method, which is based on the principle that succinate dehydrogenase in the mitochondria of the live cells could reduce the exogenous MTT (3-(4,5-dimethyl-2-thiazolyl)-2,5-diphenyl-tetrazolium bromide) to a […] Formazan which is a blue-violet crystal, and precipitates in the cells, while the death cells could not reduce MTT. DMSO could dissolve Formazan in the cells. Absorbance value of the solution was determined at 490/570 nm by microplate reader, which could indirectly indicate the amount of the live cells. The amount of the crystal from MTT is proportional to the amount of the cells within a certain range of cell number. The supernate from the HUVEC or tumor cells in exponential phase was removed and the cells were washed by PBS once. 1 ml 0.25% trypsin (4° C.) was added for digestion at 37° C. for 2 min. Then the supernate was added for neutralization and the cells were dispersed to form a suspension and the suspension was centrifuged at 1000 rpm for 3 min. The supernate was removed and 5 ml culture mediums were added for resuspension. Cells were inoculated in a 48-well plate by 500 ul/well at the concentration of 3×10^4/ml and then incubated under 5% CO2, 37° C. for 24 hours. The supernate was removed and a culture medium containing polypeptide (Zn^2+ in the culture medium was present at the concentration of 17.39 μmol/L) was added for further incubation for 48 hours. Supernate in each well was carefully removed. The well was gently washed by PBS once in an amount of 450 μl/well. 450 μl MTT culture mediums were added into each well for further cultivation for 4 hours. The supernate was carefully discarded. DMSO was added in an amount of 450 μl/well and then the plate was placed in a shaking bed for oscillation for 10 min in dark. 150 μl supernates were transferred to a 96-well ELISA plate and absorbance value of each well was detected at 490 nm and 570 nm by the microplate reader.

tumor cell HepG2 = type: cell-based
Protocol: as §1

Compound	Cell Survival (%) at a polypeptide concentration of 120 μM [1] [%]	biological activity compared with P2 [1]	further results
Ac-HTHRDFQPVLHLVALNSSLSGGMRGIRGADFQCFQQARAVGLAGT-NH2 [Polypeptide P2T2S18-45]	80		
CC[C@H](C)[C@H](NC(=O)CNC(=O)[C@H](CCCNC(=N)N)NC(=O)[C@H](CCSC)NC(=O)CNC(=O)CNC(=O)[C@H](CO)NC(=O)[C@H](CC(C)C)NC(=O)[C@@H]1CCCN1C(=O)[C@H](CO)NC(=O)[C@H](CC(N)=O)NC(=O)[C@H](CC(C)C)NC(=O)[C@H](C)NC(=O)[C@@H](NC(=O)[C@H](CC(C)C)NC(=O)[C@H](Cc1c[nH]cn1)NC(=O)[C@H](CC(C)C)NC(=O)[C@@H](NC(=O)[C@@H]1CCCN1C(=O)[C@H](CCC(N)=O)NC(=O)[C@H](Cc1ccccc1)NC(=O)[C@H](CC(=O)O)NC(=O)[C@H](CCCNC(=N)N)NC(=O)[C@H](Cc1c[nH]cn1)NC(=O)[C@@H](NC(=O)[C@H](Cc1c[nH]cn1)NC(C)=O)[C@@H](C)O)C(C)C)C(C)C)C(=O)N[C@@H](CCCNC(=N)N)C(=O)NCC(=O)N[C@@H](C)C(=O)N[C@@H](CC(=O)O)C(N)=O [Polypeptide P2T2] (Ac-HTHRDFQPVLHLVALNSPLSGGMRGIRGAD-NH2)		lower biological activity than P2	IC50 (ug/ml) HUVEC [1]: 1506.1 µg/mL (≈ 457 µM); Cell Survival (%), 1 mg/ml of polypeptide, HUVEC [1]: 46%; IC50 (ug/ml) HepG2 (tumor cell HepG2): 2169.6 µg/mL (≈ 659 µM); Cell Survival (%), 1 mg/ml of polypeptide, HepG2 (tumor cell HepG2): 55%
CC(=O)N[C@@H](Cc1c[nH]cn1)C(=O)N[C@H](C(=O)N[C@@H](Cc1c[nH]cn1)C(=O)N[C@@H](CCCNC(=N)N)C(=O)N[C@@H](CC(=O)O)C(=O)N[C@@H](Cc1ccccc1)C(=O)N[C@@H](CCC(N)=O)C(=O)N1CCC[C@H]1C(=O)N[C@H](C(=O)N[C@@H](CC(C)C)C(=O)N[C@@H](Cc1c[nH]cn1)C(=O)N[C@@H](CC(C)C)C(=O)N[C@H](C(=O)N[C@@H](C)C(=O)N[C@@H](CC(C)C)C(=O)N[C@@H](CC(N)=O)C(=O)N[C@@H](CO)C(=O)N[C@@H](CO)C(=O)N[C@@H](CC(C)C)C(=O)N[C@@H](CO)C(N)=O)C(C)C)C(C)C)[C@@H](C)O [Polypeptide P2T2S18-20] (Ac-HTHRDFQPVLHLVALNSSLS-NH2)	52		
CC[C@H](C)[C@H](NC(=O)CNC(=O)[C@H](CCCNC(=N)N)NC(=O)[C@H](CCSC)NC(=O)CNC(=O)CNC(=O)[C@H](CO)NC(=O)[C@H](CC(C)C)NC(=O)[C@H](CO)NC(=O)[C@H](CO)NC(=O)[C@H](CC(N)=O)NC(=O)[C@H](CC(C)C)NC(=O)[C@H](C)NC(=O)[C@@H](NC(=O)[C@H](CC(C)C)NC(=O)[C@H](Cc1c[nH]cn1)NC(=O)[C@H](CC(C)C)NC(=O)[C@@H](NC(=O)[C@@H]1CCCN1C(=O)[C@H](CCC(N)=O)NC(=O)[C@H](Cc1ccccc1)NC(=O)[C@H](CC(=O)O)NC(=O)[C@H](CCCNC(=N)N)NC(=O)[C@H](Cc1c[nH]cn1)NC(=O)[C@@H](NC(=O)[C@H](Cc1c[nH]cn1)NC(C)=O)[C@@H](C)O)C(C)C)C(C)C)C(=O)N[C@@H](CCCNC(=N)N)C(=O)NCC(=O)N[C@@H](C)C(=O)N[C@@H](CC(=O)O)C(=O)N[C@@H](Cc1ccccc1)C(=O)N[C@@H](CCC(N)=O)C(=O)N[C@@H](CS)C(=O)N[C@@H](Cc1ccccc1)C(=O)N[C@@H](CCC(N)=O)C(N)=O [Polypeptide P2T2S18-35] (Ac-HTHRDFQPVLHLVALNSSLSGGMRGIRGADFQCFQ-NH2)	15		
CC[C@H](C)[C@H](NC(=O)CNC(=O)[C@H](CCCNC(=N)N)NC(=O)[C@H](CCSC)NC(=O)CNC(=O)CNC(=O)[C@H](CO)NC(=O)[C@H](CC(C)C)NC(=O)[C@H](CO)NC(=O)[C@H](CO)NC(=O)[C@H](CC(N)=O)NC(=O)[C@H](CC(C)C)NC(=O)[C@H](C)NC(=O)[C@@H](NC(=O)[C@H](CC(C)C)NC(=O)[C@H](Cc1c[nH]cn1)NC(=O)[C@H](CC(C)C)NC(=O)[C@@H](NC(=O)[C@@H]1CCCN1C(=O)[C@H](CCC(N)=O)NC(=O)[C@H](Cc1ccccc1)NC(=O)[C@H](CC(=O)O)NC(=O)[C@H](CCCNC(=N)N)NC(=O)[C@H](Cc1c[nH]cn1)NC(=O)[C@@H](NC(=O)[C@H](Cc1c[nH]cn1)NC(C)=O)[C@@H](C)O)C(C)C)C(C)C)C(=O)N[C@@H](CCCNC(=N)N)C(=O)NCC(=O)N[C@@H](C)C(=O)N[C@@H](CC(=O)O)C(=O)N[C@@H](Cc1ccccc1)C(=O)N[C@@H](CCC(N)=O)C(=O)N[C@@H](CS)C(=O)N[C@@H](Cc1ccccc1)C(=O)N[C@@H](CCC(N)=O)C(=O)N[C@@H](CCC(N)=O)C(=O)N[C@@H](C)C(=O)N[C@@H](CCCNC(=N)N)C(=O)N[C@@H](C)C(=O)N[C@H](C(N)=O)C(C)C [Polypeptide P2T2S18-40] (Ac-HTHRDFQPVLHLVALNSSLSGGMRGIRGADFQCFQQARAV-NH2)	49		
Ac-HTHRDFQPVLHLVALNSSLSGGMRGIRGA-NH2 [Polypeptide P2T2S18-29]		siginficalty higher than P2	
CC[C@H](C)[C@H](NC(=O)CNC(=O)[C@H](CCCNC(=N)N)NC(=O)[C@H](CCSC)NC(=O)CNC(=O)CNC(=O)[C@H](CO)NC(=O)[C@H](CC(C)C)NC(=O)[C@H](CC(N)=O)NC(=O)[C@H](CO)NC(=O)[C@H](CC(N)=O)NC(=O)[C@H](CC(C)C)NC(=O)[C@H](C)NC(=O)[C@@H](NC(=O)[C@H](CC(C)C)NC(=O)[C@H](Cc1c[nH]cn1)NC(=O)[C@H](CC(C)C)NC(=O)[C@@H](NC(=O)[C@@H]1CCCN1C(=O)[C@H](CCC(N)=O)NC(=O)[C@H](Cc1ccccc1)NC(=O)[C@H](CC(=O)O)NC(=O)[C@H](CCCNC(=N)N)NC(=O)[C@H](Cc1c[nH]cn1)NC(=O)[C@@H](NC(=O)[C@H](Cc1c[nH]cn1)NC(C)=O)[C@@H](C)O)C(C)C)C(C)C)C(=O)N[C@@H](CCCNC(=N)N)C(=O)NCC(=O)N[C@@H](C)C(=O)N[C@@H](CC(=O)O)C(N)=O [Polypeptide P2T2N18] (Ac-HTHRDFQPVLHLVALNSNLSGGMRGIRGAD-NH2)		obviously higher than that of P2	IC50 (ug/ml) HUVEC [1]: 71.4 µg/mL (≈ 21.6 µM); Cell Survival (%), 1 mg/ml of polypeptide, HUVEC [1]: 3%; reduction of IC50 concentration as compared to that of P2 ([1]; HUVEC and HepG2): about 10 folds; IC50 (ug/ml) HepG2 (tumor cell HepG2): 187.9 µg/mL (≈ 56.8 µM); Cell Survival (%), 1 mg/ml of polypeptide, HepG2 (tumor cell HepG2): 7%
CSCC[C@H](NC(=O)CNC(=O)CNC(=O)[C@H](CO)NC(=O)[C@H](CC(C)C)NC(=O)[C@H](CO)NC(=O)[C@H](CO)NC(=O)[C@H](CC(N)=O)NC(=O)[C@H](CC(C)C)NC(=O)[C@H](C)NC(=O)[C@@H](NC(=O)[C@H](CC(C)C)NC(=O)[C@H](Cc1c[nH]cn1)NC(=O)[C@H](CC(C)C)NC(=O)[C@@H](NC(=O)[C@@H]1CCCN1C(=O)[C@H](CCC(N)=O)NC(=O)[C@H](Cc1ccccc1)NC(=O)[C@H](CC(=O)O)NC(=O)[C@H](CCCNC(=N)N)NC(=O)[C@H](Cc1c[nH]cn1)NC(=O)[C@@H](NC(=O)[C@H](Cc1c[nH]cn1)NC(C)=O)[C@@H](C)O)C(C)C)C(C)C)C(=O)N[C@@H](CCCNC(=N)N)C(=O)NCC(N)=O [Polypeptide P2T2S18-25] (Ac-HTHRDFQPVLHLVALNSSLSGGMRG-NH2)	31		
CC(=O)N[C@@H](Cc1c[nH]cn1)C(=O)N[C@H](C(=O)N[C@@H](Cc1c[nH]cn1)C(=O)N[C@@H](CCCNC(=N)N)C(=O)N[C@@H](CC(=O)O)C(=O)N[C@@H](Cc1ccccc1)C(=O)N[C@@H](CCC(N)=O)C(=O)N1CCC[C@H]1C(=O)N[C@H](C(=O)N[C@@H](CC(C)C)C(=O)N[C@@H](Cc1c[nH]cn1)C(=O)N[C@@H](CC(C)C)C(=O)N[C@H](C(=O)N[C@@H](C)C(=O)N[C@@H](CC(C)C)C(N)=O)C(C)C)C(C)C)[C@@H](C)O [Polypeptide P2T2-15, Ac-HTHRDFQPVLHLVAL-NH2] (Ac-HTHRDFQPVLHLVAL-NH2)	95		

Source: patent US10351613B2, “Polypeptide for inhibition of tumor” (G-Bio Pharma Tech Co., Ltd., priority 2015, dated 2019)
